We go through 66 compounds from ChEMBL document CHEMBL3507680, “University of Dundee, Gates Library screen for HepG2 cell viability”.

The data set in a line: Human HepG2 cell viability assay in 384 well format. In kind it is toxicity, cell-based. Set-up: dose 125 nL, time 70.5 hour; cytotoxicity at 70.5 h: concentration not given beside the values. As to conditions: HepG2 cells, read-out: Inhibition.

The structures appear in SMILES notation.

As to `Cc1noc([C@H]2COC[C@H]3CN(C(=O)Cc4cccc(F)c4)C[C@H]32)n1`, the cytotoxicity at 70.5 h is -16.4%.

Turning to `CN(C)C(=O)C1OC2(CCN(C(=O)c3ccco3)CC2)c2ccccc21` (stereo unspecified), the cytotoxicity at 70.5 h was -16.7%. To `Cc1noc([C@@H]2CC[C@@H]3[C@@H](CCN3S(=O)(=O)c3ccccc3)O2)n1` belongs -14.9%; to `Cc1nc(N2CCCC2)nc2c1CCN(C(=O)C1CCC1)CC2`, -12.5%; to `COc1ncccc1C(=O)N1CC[C@H]2C[C@@H](c3noc(C)n3)O[C@@H]2C1`, -8.55%.

Consider `Cn1cc(CN2CCC3(CC2)COC(COc2ccccn2)C3)cn1` (stereo unspecified), for which the cytotoxicity at 70.5 h is -14.7%. In the case of `CC(C)NC(=O)C1CN(C(=O)CCc2ccccc2)CC12CCOCC2` (stereo unspecified), the cytotoxicity at 70.5 h is 44.3%. For the compound `O=C(Nc1ccccc1)[C@H]1C[C@@H]2CN(S(=O)(=O)C3CC3)C[C@H]1O2`, the cytotoxicity at 70.5 h is -14.4%. To `O=C(c1ccco1)N1CC[C@H]2C[C@@H](c3nccs3)O[C@@H]2C1` belongs -1.13%; to `CC(C)CS(=O)(=O)N1C[C@H]2C[C@H](C(=O)Nc3cccnc3)[C@@H](C1)O2`, -6.34%; to `COCCNC(=O)[C@@H]1CCO[C@@H]2CCN(Cc3cnn(C)c3)C[C@@H]21`, -11.1%.

Regarding `Cn1cc(CN2CC[C@H]3OCC[C@@H](C(=O)NCc4ccco4)[C@@H]3C2)cn1`, the cytotoxicity at 70.5 h was -8%. The same measure for `Cn1cc(CN2CCc3onc(COCC4CC4)c3C2)cn1`: -12.8%; for `O=c1cc(Cn2ccnc2)nc2n1CCCN(Cc1ccc(F)cc1)C2`: -14.3%.

As for `O=c1cc(Cn2ccnc2)nc2n1CCCN(Cc1ccncc1)C2`, the cytotoxicity at 70.5 h was -21.3%.

Take `O=C(Nc1ccccc1)[C@H]1C[C@@H]2CN(C(=O)Nc3ccccc3)C[C@H]1O2`: the cytotoxicity at 70.5 h is -27.2%. The same measure for `CC(=O)N1CCN(C(=O)NC(C)C)CC2(CNC(=O)C2)C1` (stereo unspecified): -28.3%; for `CCS(=O)(=O)N1CCN(C(=O)NC(C)C)CC2(CNC(=O)C2)C1` (stereo unspecified): -26.5%; for `O=S1(=O)c2ccccc2OCC2(CCN(CCO)CC2)CN1CC1CC1`: -0.378%. To `CCS(=O)(=O)N1CCc2cc(C(=O)NC)c(NCC3CC3)nc2CC1` belongs -4.13%; to `COCCCNC(=O)CCn1ncc2c(Cl)cccc21`, -7.64%. Regarding `O=C1c2cnc(N3CCCC3)nc2CN1CCc1ccc(Cl)cc1`, the cytotoxicity at 70.5 h was -6.15%.

Consider `Cc1nn(C)c2cnn(Cc3ccc(C(=O)N4CCN(C)CC4)o3)c12`, for which the cytotoxicity at 70.5 h amounted to 28.4%.

For the compound `CCn1nc(C)c2c1cnn2CCNS(C)(=O)=O`, the cytotoxicity at 70.5 h is -6.31%. The same measure for `CCn1nc(C)c2c1cnn2CCNS(=O)(=O)CC`: 3.21%; for `CCn1ncc(NC(=O)CCn2ncc3c(Cl)cccc32)c1C`: 7.52%; for `COCCNC(=O)CCn1ncc2c(Cl)cccc21`: 16.6%. As to `CCn1ccc(NC(=O)CCn2nc(C)c3ccccc32)n1`, the cytotoxicity at 70.5 h was -10.3%. To `CCn1nc(C)cc1NC(=O)CCn1nc(C)c2ccccc21` belongs -10.1%; to `CN(C)C(=O)c1nnc2ccc(N3CCOCC3)cc2n1`, -2.48%. Consider `O=C(NC1CCCCC1)c1nnc2ccc(N3CCOCC3)cc2n1`, for which the cytotoxicity at 70.5 h is -8.08%. For `COCCNC(=O)c1nnc2ccc(N3CCOCC3)cc2n1`, the cytotoxicity at 70.5 h came out at 23.1%. The same measure for `CNC(=O)c1nnc2ccc(N3CCOCC3)cc2n1`: -4.03%; for `Cc1nn(C)c(C)c1NC(=O)CCn1ncc2ccccc21`: 9.95%.

Consider `CCn1ccc(C(=O)Nc2ccc3c(c2)C(C)(C)C(=O)N3C)n1`, for which the cytotoxicity at 70.5 h is -15.5%. For the compound `CCCn1ccc(C(=O)Nc2ccc3c(c2)C(C)(C)C(=O)N3C)n1`, the cytotoxicity at 70.5 h worked out at 13.3%. With `NCc1n[nH]c(-c2ccc(Br)cc2)n1`, the cytotoxicity at 70.5 h was 2.27%. For `CCn1nc(C)c2ncnc(N(C)Cc3ccco3)c21`, the cytotoxicity at 70.5 h is -1.38%.

As for `CCn1nc(C)c2ncnc(NCCCn3ccnc3)c21`, the cytotoxicity at 70.5 h was -9.37%.

Turning to `CCN(Cc1ccccc1)c1ncnc2c(C)nn(CC)c12`, the cytotoxicity at 70.5 h was -4.47%. The same measure for `CCn1nc(C)c2nc(C)nc(NC3CCCC3)c21`: -7.43%; for `CCn1nc(C)c2nc(C)nc(NCCc3ccccc3)c21`: 2.39%. For `CCc1nc(NCCCn2cccn2)c2c(n1)c(C)nn2CC`, the cytotoxicity at 70.5 h came out at 14.8%.

For `CCC1=N[C@@]2(CC[C@@H]3CN(CC4CC4)C[C@@H]32)C(=O)N1CC1CC1`, the cytotoxicity at 70.5 h is -20.5%. The same measure for `CCCS(=O)(=O)N1CCOC2(CCCN(c3ccccn3)C2)C1` (stereo unspecified): -13.3%; for `CC(C)CCN1C[C@H]2C[C@H](C(=O)Nc3ccccc3)[C@@H](C1)O2`: -21.4%; for `O=C(Cc1ccccc1)N1CC[C@H]2[C@@H]1CCC(=O)N2Cc1ccncc1`: 1.86%. The same measure for `Cc1ccc(CN2CCC3(CC2)CN(c2cnn(C)c2)C(=O)CO3)o1`: -9.82%; for `O=C(CC1CC1)N1CC[C@H]2[C@@H]1CCC(=O)N2Cc1ccncc1`: -9.8%; for `COc1ncccc1C(=O)N1CC[C@H]2C[C@H](c3nnc(C)[nH]3)O[C@@H]2C1`: -14.1%. To `O=S(=O)(C1CC1)N1C[C@H]2CCC[C@@]2(COCc2ccccn2)C1` belongs -14.3%; to `Cc1ccc(C(=O)N2CCOCC3(CCN(C4CCOCC4)C3)C2)o1` (stereo unspecified), -13.2%; to `CCN(C)c1ncnc2c1CCN(C(=O)Cc1ccccn1)CC2`, -9.09%. As for `CNC(=O)c1cc2c(nc1NCC(C)C)CCN(c1ccncn1)CC2`, the cytotoxicity at 70.5 h is -0.746%. Regarding `Fc1ccc(CN2CCn3cc(Cn4cccn4)nc3C2)cc1`, the cytotoxicity at 70.5 h is -20.8%.

`Cc1nc(CN2CC3(CCN(c4ncccn4)C3)CC2=O)cs1` (stereo unspecified): the cytotoxicity at 70.5 h was -23.8%. For the compound `Fc1cccnc1O[C@@H]1CN(Cc2ccccn2)[C@@H]2CCCO[C@@H]21`, the cytotoxicity at 70.5 h is -10.3%.

Consider `O=S(=O)(c1cccnc1)N1C[C@H]2CCC[C@@]2(COc2ccccn2)C1`, for which the cytotoxicity at 70.5 h is -7.2%. To `COCCN1C[C@H]2[C@@H](C1)N(Cc1cnn(C)c1)CC[C@H]2OC` belongs -11.3%. To `COc1ncccc1CN1C[C@@H]2COC[C@]2(CNS(C)(=O)=O)C1` belongs -13.2%; to `CNC(=O)c1cc2c(nc1NCC1CC1)CCN(CC1CC1)CC2`, -26.7%; to `c1cncc(OCc2noc3c2CN(Cc2ccsc2)CC3)c1`, 15.9%. On to `CCc1ccc(CN2CCCn3c(nc(Cn4ccnc4)cc3=O)C2)o1`, for which the cytotoxicity at 70.5 h was -0.664%. As to `CNC(=O)CN1CCOCC2(CN(CCC(F)(F)F)CCO2)C1` (stereo unspecified), the cytotoxicity at 70.5 h is 4.91%. Regarding `CO[C@H]1CCN(Cc2cnn(C)c2)[C@@H]2CN(Cc3ccncc3)C[C@H]12`, the cytotoxicity at 70.5 h is -6.62%. To `CO[C@@H]1CCN(Cc2cnn(C)c2)[C@@H]2CN(Cc3cccnc3)C[C@@H]21` belongs -9.6%.
